Measured values taken from patent US11312676B2, “Small molecule stimulators of steroid receptor coactivator proteins and their use in the treatment of cancer” (BAYLOR COLLEGE OF MEDICINE, priority 2014, dated 2022).

Legend:
Abl kinase = experiment: CrkL (Y207) phosphorylation as marker for Abl activation in HeLa cells; assay type: cell-based; details: 1 hour and 4 hours
Experimental: For Western blotting, cells were harvested and lysed in lysis buffer (50 mM Tris, pH 8.0, 150 mM NaCl, 10% glycerol, 0.5% NP40, protease and phosphatase inhibitor) and then centrifuged for 15 min at 14000 rpm at 4° C. After total cellular protein concentration was determined by Bradford analysis (Bio-Rad, Hercules, Calif.), protein lysates were loaded onto and resolved by sodium dodecyl sulfate-polyacrylamide gel electrophoresis (SDS-PAGE) and transferred to PVDF membranes (BioRad) which were blocked and incubated with indicated antibodies. For immunoprecipitation, 10 μg of plasmid encoding FLAG-SRC-3 was transfected into HeLa cells with 90% confluence in one 10 cm plate with lipofectamine 2000 (Invitrogen). Twenty-four hours after transfection, the cells were treated with MCB-613 for one hour and lysed with lysis buffer (25 mM Tris-Cl pH7.5, 150 mM NaCl, 5% glycerol, 1 mM EDTA, 1% Triton X-100, protease and phosphatase inhibitor) at 4° C. After a 30-second sonication, the lysate was cleared by centrifugation at 14000 rpm at 4° C. for 15 minutes and was incubated with anti-Flag-M2 agarose affinity gel (Sigma) for four hours. The agarose gel was washed four times with washing buffer (25 mM Tris pH 8.0, 150 mM NaCl, 1 mM EDTA, 1% Triton X-100) and resuspended with SDS loading buffer for Western blotting. […]

HeLa cells = experiment: Western blot of stress, UPR, autophagy and apoptosis markers in HeLa cells; assay type: cell-based
Experimental: For Western blotting, cells were harvested and lysed in lysis buffer (50 mM Tris, pH 8.0, 150 mM NaCl, 10% glycerol, 0.5% NP40, protease and phosphatase inhibitor) and then centrifuged for 15 min at 14000 rpm at 4° C. After total cellular protein concentration was determined by Bradford analysis (Bio-Rad, Hercules, Calif.), protein lysates were loaded onto and resolved by sodium dodecyl sulfate-polyacrylamide gel electrophoresis (SDS-PAGE) and transferred to PVDF membranes (BioRad) which were blocked and incubated with indicated antibodies. For immunoprecipitation, 10 μg of plasmid encoding FLAG-SRC-3 was transfected into HeLa cells with 90% confluence in one 10 cm plate with lipofectamine 2000 (Invitrogen). Twenty-four hours after transfection, the cells were treated with MCB-613 for one hour and lysed with lysis buffer (25 mM Tris-Cl pH7.5, 150 mM NaCl, 5% glycerol, 1 mM EDTA, 1% Triton X-100, protease and phosphatase inhibitor) at 4° C. After a 30-second sonication, the lysate was cleared by centrifugation at 14000 rpm at 4° C. for 15 minutes and was incubated with anti-Flag-M2 agarose affinity gel (Sigma) for four hours. The agarose gel was washed four times with washing buffer (25 mM Tris pH 8.0, 150 mM NaCl, 1 mM EDTA, 1% Triton X-100) and resuspended with SDS loading buffer for Western blotting.

## CCC1CC(=Cc2cccnc2)C(=O)C(=Cc2cccnc2)C1 (stereo not drawn) [MCB-613, 4-Ethyl-2,6-bis-pyridin-3-ylmethylene-cyclohexanone]
Abl kinase
  activation of Abl (CrkL Y207 phosphorylation): activation of Abl could be observed as early as one hour
HeLa cells; 4-5 hours
  proteasome function and ER stress (polyubiquitinated proteins, UPR markers): leads to proteasome dysfunction and ER stress
HeLa cells; 24 hours
  autophagy and apoptosis markers: led to the induction of LC3BII and caspase-3 cleavage
